Assays:
[1] = system: human cervical tumor cell line HeLa (ATCC CCL-2); test: SAC-Formation - Paclitaxel-Induced Assay; assay type: cell-based; details: Homo sapiens, HeLa, 24 h, HeLa cells, paclitaxel 0.05 μM, test range 0.005 μM-20 μM, read-out: IC50 [mol/l] SAC-Formation - Paclitaxel-Induced Assay
Outline: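 HeLa cells incubated overnight at 37° C, then given paclitaxel (0.05 μM final) plus test compound (0.005–20 μM, 0.5% DMSO) together for 24 h at 37° C. Fixed cells stained for phospho-histone H3 Ser10 (mitotic cells) and Hoechst 33342 (cell count); imaging-derived mitotic index fitted by four-parameter Hill equation.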

[2] = molecular target: T1, CDK2/CycE (Homo sapiens, UniProt P24941); test: CDK2/CycE kinase assay (TR-FRET); assay type: biochemical; details: avg, read-out: CDK2 avg (IC50 [mol/l])
T1 construct: GST; purchased ProQinase GmbH (Freiburg, Germany); host or cells: insect cells (Sf9)
Outline: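 GST-tagged human CDK2 and CycE from Sf9 cells, preincubated 15 min with compound, then 25 min at 22° C. with 10 μM ATP and 0.75 μM biotinylated Rb-derived peptide (final). Phospho-substrate read by TR-FRET (anti-pRB pSer807/pSer811, Eu anti-mouse IgG, streptavidin-XL665), 665/620 nm ratio, normalised to no-inhibitor and no-enzyme controls.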

SMILES	IC50 [1] [nM]	IC50 [2] [nM]
CCN1CC[C@H](Oc2ccc(NC(=O)c3c(C)nsc3Nc3cnc(C(F)(F)F)cn3)cn2)[C@@H](F)C1 [Example 365, N-(6-{[(3S,4S)-1-ethyl-3-fluoropiperidin-4-yl]oxy}pyridin-3-yl)-3-methyl-5-{[5-(trifluoromethyl)pyrazin-2-yl]amino}-1,2-thiazole-4-carboxamide]	150	> 20000
Cc1nsc(Nc2cnc(C(F)(F)F)cn2)c1C(=O)Nc1ccc(O[C@H]2CCN(CC(F)(F)F)C[C@@H]2F)nc1 [Example 363, N-(6-{[(3S,4S)-3-fluoro-1-(2,2,2-trifluoroethyl)piperidin-4-yl]oxy}pyridin-3-yl)-3-methyl-5-{[5-(trifluoromethyl)pyrazin-2-yl]amino}-1,2-thiazole-4-carboxamide]	47	> 20000
Cc1nsc(Nc2cnc(C(F)(F)F)cn2)c1C(=O)Nc1ccc(F)c(OCC2CCCN(CC(F)(F)F)C2)c1 (stereo not shown) [Example 337, N-(4-fluoro-3-{[1-(2,2,2-trifluoroethyl)piperidin-3-yl]methoxy}phenyl)-3-methyl-5-{[5-(trifluoromethyl)pyrazin-2-yl]amino}-1,2-thiazole-4-carboxamide]	51	≥ 20000
Cc1nsc(Nc2cnc(C(F)(F)F)cn2)c1C(=O)Nc1ccc(OCC2CCN(CC(F)F)CC2)nc1 [Example 345, N-(6-{[1-(2,2-difluoroethyl)piperidin-4-yl]methoxy}pyridin-3-yl)-3-methyl-5-{[5-(trifluoromethyl)pyrazin-2-yl]amino}-1,2-thiazole-4-carboxamide]	21	≥ 20000
Cc1nsc(Nc2cnc(C(F)(F)F)cn2)c1C(=O)Nc1ccc(O[C@@H]2CCN(CC(F)(F)F)C2)nc1 [Example 380, 3-methyl-N-(6-{[(3R)-1-(2,2,2-trifluoroethyl)pyrrolidin-3-yl]oxy}pyridin-3-yl)-5-{[5-(trifluoromethyl)pyrazin-2-yl]amino}-1,2-thiazole-4-carboxamide]	330	> 20000
Cc1nsc(Nc2cnc(C(F)(F)F)cn2)c1C(=O)Nc1ccc(OCC2CCN(CC(F)(F)F)CC2)nc1 [Example 346, 3-methyl-N-(6-{[1-(2,2,2-trifluoroethyl)piperidin-4-yl]methoxy}pyridin-3-yl)-5-{[5-(trifluoromethyl)pyrazin-2-yl]amino}-1,2-thiazole-4-carboxamide]	32	≥ 20000
Cc1nsc(Nc2cnc(C(F)(F)F)cn2)c1C(=O)Nc1ccc(OC2CCN(C(CF)CF)CC2)nc1 [Example 324, N-(6-{[1-(1,3-difluoropropan-2-yl)piperidin-4-yl]oxy}pyridin-3-yl)-3-methyl-5-{[5-(trifluoromethyl)pyrazin-2-yl]amino}-1,2-thiazole-4-carboxamide]	870	≥ 20000
Cc1nsc(Nc2cnc(C(F)(F)F)cn2)c1C(=O)Nc1ccc(N2CCN(CC(F)F)CC2)nc1 [Example 359, N-{6-[4-(2,2-difluoroethyl)piperazin-1-yl]pyridin-3-yl}-3-methyl-5-{[5-(trifluoromethyl)pyrazin-2-yl]amino}-1,2-thiazole-4-carboxamide]	110	> 20000
Cc1nsc(Nc2cnc(C(F)(F)F)cn2)c1C(=O)Nc1ccc(OC2CCCN(C(CF)CF)C2)nc1 (stereo not shown) [Example 333, N-(6-{[1-(1,3-difluoropropan-2-yl)piperidin-3-yl]oxy}pyridin-3-yl)-3-methyl-5-{[5-(trifluoromethyl)pyrazin-2-yl]amino}-1,2-thiazole-4-carboxamide]	200	≥ 20000
Cc1nsc(Nc2cnc(C(F)(F)F)cn2)c1C(=O)Nc1ccc(F)c(OC[C@H]2CCN(CC(F)F)C2)c1 [Example 397, N-(3-{[(3S)-1-(2,2-difluoroethyl)pyrrolidin-3-yl]methoxy}-4-fluorophenyl)-3-methyl-5-{[5-(trifluoromethyl)pyrazin-2-yl]amino}-1,2-thiazole-4-carboxamide]	82	> 20000
Cc1nsc(Nc2cnc(C(F)(F)F)cn2)c1C(=O)Nc1ccc(OC2CCCN(CC(F)(F)F)C2)nc1 (stereo not shown) [Example 331, 3-methyl-N-(6-{[1-(2,2,2-trifluoroethyl)piperidin-3-yl]oxy}pyridin-3-yl)-5-{[5-(trifluoromethyl)pyrazin-2-yl]amino}-1,2-thiazole-4-carboxamide]	23	≥ 20000
Cc1nsc(Nc2cnc(C(F)(F)F)cn2)c1C(=O)Nc1ccc(F)c(OC[C@@H]2CCCN(CC(F)F)C2)c1 [Example 341, N-(3-{[(3R)-1-(2,2-difluoroethyl)piperidin-3-yl]methoxy}-4-fluorophenyl)-3-methyl-5-{[5-(trifluoromethyl)pyrazin-2-yl]amino}-1,2-thiazole-4-carboxamide]	37	> 20000
Cc1nsc(Nc2cnc(C(F)(F)F)cn2)c1C(=O)Nc1ccc(CCC2CCN(CC(F)F)CC2)nc1 [Example 356, N-(6-{2-[1-(2,2-difluoroethyl)piperidin-4-yl]ethyl}pyridin-3-yl)-3-methyl-5-{[5-(trifluoromethyl)pyrazin-2-yl]amino}-1,2-thiazole-4-carboxamide]	250	> 20000
Cc1nsc(Nc2cnc(C(F)(F)F)cn2)c1C(=O)Nc1ccc(O[C@H]2CCN(CC(F)F)C2)nc1 [Example 382, N-(6-{[(3S)-1-(2,2-difluoroethyl)pyrrolidin-3-yl]oxy}pyridin-3-yl)-3-methyl-5-{[5-(trifluoromethyl)pyrazin-2-yl]amino}-1,2-thiazole-4-carboxamide]	45	> 20000

Source: US20170334899A1, “AMINO-SUBSTITUTED ISOTHIAZOLES” (Bayer Pharma Aktiengesellschaft, priority 2014, published 2017)
